In patent publication US9988430B2, “Stable GLP-1 based GLP-1/glucagon receptor co-agonists” (Novo Nordisk A/S, priority 2014, dated 2018):
pIC50: −log10 of the molar value. *1 amine or outer side, *2 acyl side, *3 side chain or, on linkers, in order; H or OH if unused. Where a SMILES comes first, the peptide text is derived from it. Bridges are numbered along the chain shown (N, C = ends). Roman numbers before positions name the chains, in order. Side-chain parts run from the residue outwards. [ ]: non-standard residue; d: D form. The star is where a group is joined. C18 diacid = O=C(O)CCCCCCCCCCCCCCCCC(=O)*; γGlu = O=C(O)[C@H](CCC(=O)[*:2])N[*:1]; Desaminohistidyl = O=C(CCc1c[nH]cn1)*; AEEA = NCCOCCOCC(=O)O; Aib = CC(C)(N)C(=O)O

Biological target: T1, human GLP-1 receptor (Homo sapiens, UniProt P43220)
T1 construct: expressed in transfected cells; host or cells: membranes of BHK cells, parent line BHKTS13, clone FCW467-12A
Test: Assay (II)(a): GLP-1 receptor binding, [125I]GLP-1 displacement, SPA on BHK membranes
Conditions: displacement of [125I]GLP-1, membranes with human GLP-1 receptor; read-out: IC50 GLP-1R
Method in brief: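 Membranes from BHK cells expressing human GLP-1 receptor with WGA SPA beads, [125I]GLP-1(7-36)NH2 (480 pM added solution) and compound in HEPES pH 7.4 buffer with EGTA, MgCl2, Tween 20. Incubated 2 h at 30° C; SPA counts fitted by non-linear regression to IC50 in nM.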

T1 sequence (P43220 24-463): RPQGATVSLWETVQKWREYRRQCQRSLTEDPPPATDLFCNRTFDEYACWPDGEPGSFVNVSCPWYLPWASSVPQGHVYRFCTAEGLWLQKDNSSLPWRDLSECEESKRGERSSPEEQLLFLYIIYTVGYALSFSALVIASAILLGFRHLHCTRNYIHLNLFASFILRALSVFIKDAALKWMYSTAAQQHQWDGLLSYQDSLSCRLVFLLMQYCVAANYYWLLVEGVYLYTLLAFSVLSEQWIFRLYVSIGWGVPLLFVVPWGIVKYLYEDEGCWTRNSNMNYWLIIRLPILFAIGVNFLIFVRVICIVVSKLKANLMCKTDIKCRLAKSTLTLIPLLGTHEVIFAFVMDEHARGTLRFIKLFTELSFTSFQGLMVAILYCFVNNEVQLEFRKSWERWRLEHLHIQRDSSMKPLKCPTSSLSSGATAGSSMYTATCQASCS

| SMILES | pIC50 |
| --- | --- |
| CC[C@H](C)[C@H](NC(=O)[C@H](Cc1ccccc1)NC(=O)[C@H](CCC(=O)O)NC(=O)[C@H](CCCNC(=N)N)NC(=O)[C@H](C)NC(=O)[C@H](C)NC(=O)[C@H](CCCNC(=N)N)NC(=O)CNC(=O)[C@H](CCC(=O)O)NC(=O)[C@H](CC(C)C)NC(=O)[C@H](Cc1ccc(O)cc1)NC(=O)[C@H](CCCNC(=N)N)NC(=O)[C@H](CO)NC(=O)[C@@H](NC(=O)[C@H](CC(=O)O)NC(=O)[C@H](CO)NC(=O)[C@@H](NC(=O)[C@H](Cc1ccccc1)NC(=O)[C@@H](NC(=O)CNC(=O)[C@H](Cc1c[nH]cn1)NC(=O)C(C)(C)NC(=O)CCc1c[nH]cn1)[C@@H](C)O)[C@@H](C)O)C(C)C)C(=O)N[C@@H](C)C(=O)N[C@@H](Cc1c[nH]c2ccccc12)C(=O)N[C@@H](CC(C)C)C(=O)N[C@@H](CC(C)C)C(=O)N[C@@H](CCCCNC(=O)CC[C@H](NC(=O)CC[C@H](NC(=O)COCCOCCNC(=O)CC[C@H](NC(=O)CC[C@H](NC(=O)CCCCCCCCCCCCCCCCC(=O)O)C(=O)O)C(=O)O)C(=O)O)C(=O)O)C(=O)NCC(=O)N[C@@H](C)C(=O)NCC(=O)O [Example 35, N^ε34-[(4S)-4-carboxy-4-[[(4S)-4-carboxy-4-[[2-[2-[2-[[(4S)-4-carboxy-4-[[(4S)-4-carboxy-4-(17-carboxyheptadecanoylamino)butanoyl]amino]butanoyl]amino]ethoxy]ethoxy]acetyl]amino]butanoyl]amino]butanoyl]-[Imp7,Aib8,His9,Arg18,Arg23,Arg26,Leu33,Ala36]-GLP-1-(7-37)-peptide] (Desaminohistidyl-[Aib]HGTFTSDVSRYLEGRAAREFIAWLLK([γGlu-γGlu-AEEA-γGlu-γGlu-C18 diacid])GAG-OH) | 9.00 |
| CC[C@H](C)[C@H](NC(=O)[C@H](Cc1ccccc1)NC(=O)[C@H](CCC(=O)O)NC(=O)[C@H](CCCNC(=N)N)NC(=O)[C@H](C)NC(=O)[C@H](C)NC(=O)[C@H](CCC(N)=O)NC(=O)CNC(=O)[C@H](CCC(=O)O)NC(=O)[C@H](CC(C)C)NC(=O)[C@H](Cc1ccc(O)cc1)NC(=O)[C@H](CCCNC(=N)N)NC(=O)[C@H](CO)NC(=O)[C@@H](NC(=O)[C@H](CC(=O)O)NC(=O)[C@H](CO)NC(=O)[C@@H](NC(=O)[C@H](Cc1ccccc1)NC(=O)[C@@H](NC(=O)CNC(=O)[C@H](Cc1c[nH]cn1)NC(=O)C(C)(C)NC(=O)CCc1c[nH]cn1)[C@@H](C)O)[C@@H](C)O)C(C)C)C(=O)N[C@@H](C)C(=O)N[C@@H](Cc1c[nH]c2ccccc12)C(=O)N[C@@H](CC(C)C)C(=O)N[C@@H](CC(C)C)C(=O)N[C@@H](CCCCNC(=O)CNC(=O)[C@H](CO)NC(=O)[C@H](CCC(=O)O)NC(=O)CNC(=O)[C@H](CO)NC(=O)CC[C@H](NC(=O)CC[C@H](NC(=O)CCCCCCCCCCCCCCCCC(=O)O)C(=O)O)C(=O)O)C(=O)N[C@H](C(N)=O)[C@@H](C)O [Example 8, N^ε34-[2-[[(2S)-2-[[(2S)-4-carboxy-2-[[2-[[(2S)-2-[[(4S)-4-carboxy-4-[[(4S)-4-carboxy-4-(17-carboxyheptadecanoylamino)butanoyl]amino]butanoyl]amino]-3-hydroxypropanoyl]amino]acetyl]amino]butanoyl]amino]-3-hydroxypropanoyl]amino]acetyl]-[Imp7,Aib8,His9,Arg18,Arg26,Leu33,Thr35]-GLP-1-(7-35)-peptide amide] (I: Desaminohistidyl-[Aib]HGTFTSDVSRYLEGQAAREFIAWLLKT-NH2 / II: {C18 diacid-γGlu-γGlu}-SGESG; amide I:27-II:C) | 9.05 |
